According to PMC10959927, “Platinum iodido drugs show potential anti-tumor activity, affecting cancer cell metabolism and inducing ROS and senescence in gastrointestinal cancer cells” (Communications Biology, 2024):
“And” between values parts separate entries of the source, which are not always exact repeats. Equal values may be shown once.

Columns and labels:
AGS cells [1] = assay: Ratio GSH/GSSG, colorimetric kit; format: cell-based, human
Method: (§1) GSH and GSSG levels were determined in AGS and PANC1 cells after 3 and 24 h of treatment with the compounds (using H2O2 as a positive control) with the Glutathione Colorimetric Detection Kit (ThermoFisher) following the manufacturer’s instructions. Thirty minutes after adding the Colorimetric Detection Reagent and the Reaction Mixture, the absorbance was read at 405 nm. A standard curve was generated with each assay to interpolate the sample results. To measure GSSG, standards and samples must be diluted with the Sample Diluent containing 2-vinylpyridine.

PANC1 cells [2] = assay: Ratio GSH/GSSG, colorimetric kit; format: cell-based, human
Method: as §1

AGS cells [3] = assay: SA-β-Gal activity, CellEvent Senescence Green flow cytometry;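 note: IC50 concentration of each compound relative to untreated control set as 1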; format: cell-based, human; details: Fig. 3A, replicate values
Method: (§2) SA-β-Gal activity was measured following two different approaches. (i) AGS, MKN45 and PANC1 cells (5 × 10^4) were seeded in 24-multiwell dishes and incubated overnight. […] For flow cytometry cell senescence detection, cells were tripsinized, fixed for 15 min with PFA 4% and stained with the CellEvent Senescense Green Flow Cytometry Assay Kit (C10840, Invitrogen) according to manufacturer’s instructions. CellEvent Senescense Green Probe was used at a 1:500 dilution and fluorescence was detected using the filter (Ex488nm/Em530/30) BL1 with a 4-laser Attune NxT Acoustic Cytometer (Thermo Fisher Scientific). […] After 3 h, the treatments were removed, new supplemented medium was added, and cells were incubated for an additional 24 h. Finally, SA-β-Gal staining was performed using the Senescence Cells Histochemical Staining Kit (CS0030-1KT) according to the manufacturer’s instructions.

MKN45 cells [4] = assay: as above; format: cell-based, human; details: Fig. 3A, replicate values
Method: as §2

PANC1 cells [5] = assay: as above; format: cell-based, human; details: Fig. 3A, replicate values
Method: as §2

HPDE cells = assay: Cell viability, crystal violet staining, non-tumoral cells; details: read-out: IC50 concentration (± SD) at 48 h in non-tumoral cell lines
Method: (§3) Cell viability was assessed using a crystal violet-based staining method. […] The cells (2 × 10^5) were seeded in 24-multiwell dishes in 0.5 mL of complete medium and incubated overnight. […] After 48 h, cells were fixed with 1% glutaraldehyde (20–30 min), washed with distilled water, and stained with 0.1% crystal violet. […] IC50 were calculated by using GraphPad Prism (version 8.0). Nonlinear regression was used to fit the data to the log (inhibitor) versus response (variable slope).

CC2509 fibroblasts = assay: as above; details: read-out: IC50 concentration (± SD) at 48 h in non-tumoral cell lines; CC2509, 48 h
Method: as §3

PANC1 cells [6] = assay: Clonogenic (CFU) assay after 1, 3, 24 h pre-treatment; format: cell-based, human
Method: For the clonogenic assay we used two different approaches. […] Then, cells were cultured in a 6-well plate at a very low concentration (2 × 10^3 cells per well) and incubated for 10 days. […] To evaluate the role of ROS in cell proliferation, we supplemented the growth medium with 0.5 mM NAC. After 10 days, the cells were fixed with 1% glutaraldehyde and stained with 0.1% crystal violet. The number of colonies was quantified directly and reflected as CFUs: Colony Forming Units.

AGS cells [7] = assay: RT-qPCR gene expression (CDKN1A, IL6, MMP1, MAP2K3, SOD1, SOD2, CAT, MKI67, TNFRSF10D); format: cell-based, human
Method: (§4) Total cellular RNA was extracted using Tri-Reagent (Life Technologies), following the manufacturer’s instructions. One μg of total RNA was primed with random primers and cDNA synthesized with an M-MLV reverse transcriptase following the manufacturer’s instructions (Promega). Target genes were amplified using a SYBR Green polymerase chain reaction assay, working with the specific primer sets listed in Table 4.
(§5) Thermal cycling of the qPCR reaction was initiated with a denaturation step at 95 °C for 10 min. The process consisted of 40 cycles (denaturation at 95 °C for 15 sec, annealing at 60 °C for 30 sec, and elongation at 75 °C for 30 sec). PCR amplifications were carried out in a StepOne Real‐time PCR System (Applied Biosystems, 4376357). Relative mRNA levels were calculated by the delta-Ct method (2-ΔΔCt), where each 1-Ct difference equals a two-fold change in transcript abundance, using GAPDH as an endogenous gene reference. ΔΔCT represents the difference between the mean ΔCT value of the cells tested and the mean ΔCT value of the calibrator, both calculated for the same PCR run.

MKN45 cells [8] = assay: as above; format: cell-based, human
Method: as §4, §5

PANC1 cells [9] = assay: as above; format: cell-based, human
Method: as §4, §5

[10] = MKN45, Fig. 3C, replicate values
[11] = PANC1, Fig. 3C, replicate values
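Throughout, for Fold change % Senescence: IC50 concentration of each compound relative to untreated control set as 1.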

Structure (SMILES): [NH2][Pt]([NH2])([Cl])[Cl] [CDDP, cisplatin, reference compound]
- GSH/GSSG (AGS cells [1]; AGS, 3, relative to Control = 1): 0.992 and 0.9971 and 1.026
- GSH/GSSG (AGS cells [1]; AGS, 24, relative to Control = 1): 0.8767 and 0.8827 and 0.9433
- GSH/GSSG (PANC1 cells [2]; PANC1, 3, relative to Control = 1): 0.8204 and 0.833 and 0.8843
- GSH/GSSG (PANC1 cells [2]; PANC1, 24, relative to Control = 1): 0.8133 and 0.9393 and 0.9531
- Fold change % Senescence (AGS cells [3]): 1.16 fold change and 1.15 fold change and 1.2 fold change
- Fold change % Senescence (MKN45 cells [4]): 1.67 fold change and 1.92 fold change and 1.87 fold change
- Fold change % Senescence (PANC1 cells [5]): 1.64 fold change and 1.11 fold change and 1.53 fold change
- IC50 (HPDE cells): 0.45 ± 0.05 µM
- IC50 (CC2509 fibroblasts): 25 µM and 23.8 µM
- CFUs (PANC1 cells [6]; PANC1, 1 h pre-treatment at IC50, colonies after 10 days): 160 and 132 and 144
- CFUs (PANC1 cells [6]; PANC1, 3 h pre-treatment at IC50, colonies after 10 days): 20 and 28 and 36
- CDKN1A, Fold change vs GAPDH (AGS cells [7]; Fig. 3C, replicate values): 19.195 fold change and 16.0881 fold change and 22.9019 fold change
- IL-6, Fold change vs GAPDH (AGS cells [7]; Fig. 3C, replicate values): 0.7415 fold change and 0.5536 fold change and 0.449 fold change
- MMP-1, Fold change vs GAPDH (AGS cells [7]; Fig. 3C, replicate values): 4.748 fold change and 3.523 fold change and 6.399 fold change
- Fold change MAP2K3 vs GAPDH (AGS cells [7]; Fig. 4B, replicate values): 3.776 fold change and 3.2606 fold change and 4.374 fold change
- TNFRSF10D Fold change vs GAPDH (AGS cells [7]; Fig. S4C): 10.7682 fold change and 9.829 fold change and 11.7968 fold change
- CAT (Fold change vs GAPDH) (AGS cells [7]; mRNA vs Control = 1): 0.4339 Fold change and 0.4032 Fold change and 0.467 Fold change
- SOD1 (Fold change vs GAPDH) (AGS cells [7]; mRNA vs Control = 1): 1.248 Fold change and 1.114 Fold change and 1.397 Fold change
- SOD2 (Fold change vs GAPDH) (AGS cells [7]; mRNA vs Control = 1): 1.83 Fold change and 1.608 Fold change and 2.083 Fold change
- MKI67 Fold change vs GAPDH (MKN45 cells [8]; MKN45, Fig. S4C): 0.592 fold change and 0.4427 fold change and 0.7916 fold change
- TNFRSF10D Fold change vs GAPDH (MKN45 cells [8]; MKN45, Fig. S4C): 0.5932 fold change and 0.4461 fold change and 0.7888 fold change
- CAT (Fold change vs GAPDH) (MKN45 cells [8]; MKN45, mRNA vs Control = 1): 1.496 Fold change and 1.261 Fold change and 1.775 Fold change
- SOD1 (Fold change vs GAPDH) (MKN45 cells [8]; MKN45, mRNA vs Control = 1): 1.684 Fold change and 1.471 Fold change and 1.928 Fold change
- SOD2 (Fold change vs GAPDH) (MKN45 cells [8]; MKN45, mRNA vs Control = 1): 5.8142 Fold change and 4.057 Fold change and 3.7805 Fold change
- CDKN1A, Fold change vs GAPDH (MKN45 cells [8]; [10]): 4.774 fold change and 4.07 fold change and 5.599 fold change
- IL-6, Fold change vs GAPDH (MKN45 cells [8]; [10]): 1.95 fold change and 3.642 fold change and 4.704 fold change
- MMP-1, Fold change vs GAPDH (MKN45 cells [8]; [10]): 3.347 fold change and 2.194 fold change and 5.104 fold change
- Fold change MAP2K3 vs GAPDH (MKN45 cells [8]; MKN45, Fig. 4B, replicate values): 2.858 fold change and 2.103 fold change and 3.884 fold change
- MKI67 Fold change vs GAPDH (PANC1 cells [9]; PANC1, Fig. S4C): 0.584 fold change and 0.4541 fold change and 0.7511 fold change
- TNFRSF10D Fold change vs GAPDH (PANC1 cells [9]; PANC1, Fig. S4C): 2.899 fold change and 2.5476 fold change and 3.299 fold change
- CAT (Fold change vs GAPDH) (PANC1 cells [9]; PANC1, mRNA vs Control = 1): 0.9643 Fold change and 0.7898 Fold change and 1.177 Fold change
- SOD1 (Fold change vs GAPDH) (PANC1 cells [9]; PANC1, mRNA vs Control = 1): 1.201 Fold change and 1.761 Fold change and 1.789 Fold change
- SOD2 (Fold change vs GAPDH) (PANC1 cells [9]; PANC1, mRNA vs Control = 1): 0.4267 Fold change and 0.395 Fold change and 0.4609 Fold change
- CDKN1A, Fold change vs GAPDH (PANC1 cells [9]; [11]): 2.689 fold change and 2.397 fold change and 3.018 fold change
- IL-6, Fold change vs GAPDH (PANC1 cells [9]; [11]): 6.723 fold change and 5.78 fold change and 7.821 fold change
- MMP-1, Fold change vs GAPDH (PANC1 cells [9]; [11]): 3.584 fold change and 2.804 fold change and 4.175 fold change
- Fold change MAP2K3 vs GAPDH (PANC1 cells [9]; PANC1, Fig. 4B, replicate values): 2.138 fold change and 1.804 fold change and 2.534 fold change
